A short description of data set [1]: Octanol–water partition coefficient, shake-flask method (OECD Test No. 107). The data set is classed as physicochemical. Here is the method:
The octanol–water partition coefficients (KOW) of the synthesized products were estimated by the shake-flask method according to the OECD Test No. 107 guidelines (Partition Coefficient n-Octanol/Water: Shake-Flask Method). Measurements were performed using mutually saturated distilled water and 1-octanol in a glass vial containing a magnetic stir bar. First, the synthesized products were dissolved in distilled water (or 1-octanol) at a chosen concentration (0.01 mol per 1 L of octanol or water), and then proper amounts of the second solvent (octanol or water) were added. Subsequently, two duplicate runs were carried out with different solvent ratios: 4 mL of 1-octanol and 2 mL of water (2:1), 4 mL of 1-octanol and 4 mL of water (1:1), and 4 mL of 1-octanol and 8 mL of water ([…]). All vials were shaken at a constant temperature of 25 °C. After 24 h, all samples were centrifuged and the aqueous and octanolic phases were collected with a syringe. The concentrations of compounds in water were determined spectrophotometrically using a Rayleigh UV-1601 spectrophotometer (Beijing Beifen-Ruili Analytical, China) based on calibration curves made previously (at λmax = 262 nm) vs concentration for each substance. Two repetitions of each measurement were performed in a specific solvent ratio (1:1, 1:2, and 2:1). Finally, the log KOW was calculated as the average of six results collected for each compound.
The outermost layer of the skin (stratum corneum) contains around […] water, a relatively low amount compared to the rest of the human body. Given the hydrophobic nature of 1-octanol, it can be used as a simplified model for the stratum corneum.[50] The octanol–water partition coefficient (KOW) value represents the proportion between the concentrations of a substance in both liquid phases of a system composed of water and 1-octanol. […] The log KOW values are given in Figure 6 (exact values are provided in Table S4, Supporting Information).

Another data set relates to Cutibacterium acnes. In words: MIC and MBC determination, microdilution method. It counts as cell-based. Conditions: Cutibacterium acnes; for MIC: 48 h, read-out: MIC, C. acnes; for MBC: read-out: MBC, C. acnes. A general note: In broth dilution the organism is exposed to a series of concentrations in liquid medium.
Another data set deals with Pseudomonas aeruginosa. The experiment in a line: MIC and MBC determination, microdilution method. The conditions noted are these: for MIC: 18 h, read-out: MIC, P. aeruginosa. The data set is classed as cell-based.
For a further data set, the system named is Candida albicans. The experiment in a line: MIC and MFC determination, microdilution method. The conditions noted are these: clinical strain, tested 4 096 to 0.125 μg/mL, b = out of range. The data set is classed as cell-based. The protocol:
The antimicrobial activities of the compounds were tested against clinical strains of an aerobic Gram-negative bacterium—Pseudomonas aeruginosa (P. aeruginosa), facultative anaerobic Gram-positive bacteria—Staphylococcus aureus (S. aureus) and Staphylococcus epidermidis (S. epidermidis), anaerobic Gram-positive bacterium—Cutibacterium acnes (C. acnes), and yeast-like fungus—Candida albicans (C. albicans).
Aerobic and facultative anaerobic bacteria cultures were grown in Brain Heart Infusion broth (BHI, bioMerieux, France) at 35 °C ± 1 °C for 18 h, C. acnes cultures were grown in thioglycolate broth with resazurin (TGB, bioMerieux, France) at 35 ± 1 °C for 48 h, and yeast cultures were grown in Sabouraud dextrose broth (SDB, Merck, Germany) at 35 ± 1 °C for 24 h. After incubation, each culture was diluted in a suitable liquid medium: P. aeruginosa, S. aureus, and S. epidermidis—Mueller–Hinton broth (MHB; Oxoid, UK); C. acnes—TGB; and C. albicans—SDB, to obtain a final suspension containing about 10^6 CFU/mL.
The microdilution method was employed to determine the compounds’ MIC (Minimal Inhibitory Concentration) and MBC/MFC (Minimal Bactericidal Concentration/Minimal Fungicidal Concentration) against the tested bacterial and fungal strains.
The compounds were serially diluted (2-fold) in the respective media (P. aeruginosa, S. aureus, and S. epidermidis—MHB, C. acnes—TGB, and C. albicans—SDB in 96-well plates), and the microbial suspensions were added. The compounds were tested in the final concentration range of 4 096 to 0.125 μg/mL, and the final microbial inoculum was approximately 5 ×10^5 CFU/mL. The tests were incubated at 35 °C ± 1 °C for 18 h (P. aeruginosa, S. aureus, and S. epidermidis) or 24 h (C. albicans) or 48 h (C. acnes). C. acnes was incubated in an anaerobic atmosphere using a GENbag anaer (bioMerieux, France). Media (without the strains) added to the different concentrations of tested compounds and media inoculated with microbial suspension were used as a negative control and growth control, respectively.
The MIC was defined as the lowest concentration at which visible growth was inhibited. MBC and MFC concentrations were determined as an extension of the MIC test. […] The plates were incubated at 35 ± 1 °C for 18–72 h. C. acnes was incubated in an anaerobic atmosphere. The MBC/MFC was defined as the lowest concentration at which no growth was observed. All tests were performed in duplicate.

[2] abbreviates: shake-flask, 25 °C, 24 h, average of six results, read-out: Octanol-water partition coefficient (log Kow).
The mark [3] stands for this setting: clinical strain, anaerobic, tested 4 096 to 0.125 μg/mL, b = out of range.

In brackets after ≈: the same amount, converted by molar mass. Like-named read-outs stand apart in the source and are kept apart here.

The term MIC denotes the lowest concentration found to suppress growth. What is called MBC is the smallest concentration meeting the test's criterion for killing. Usually MFC stands for the lowest tested concentration that kills the fungus rather than only halting it.

Turning to `CCCCCCCC[n+]1cccc(C(N)=O)c1.O=C([O-])c1ccccc1O` [compound 4], the logP at 24 h in data set [1] (setting [2]) was 0.07.
As for `O=C(O)c1ccccc1O` [SAL, salicylic acid, reference compound], the minimum inhibitory concentration (MIC) came to 1020 µg/mL (≈ 7.41 mM) in the data set on Cutibacterium acnes (setting [3]); 2050 µg/mL (≈ 14.8 mM) in the data set with Pseudomonas aeruginosa (clinical strain, tested 4 096 to 0.125 μg/mL, b = out of range); 2050 µg/mL (≈ 14.8 mM) in the data set on Candida albicans (24 h, read-out: MIC, C. albicans). The MBC amounted to 4100 µg/mL (≈ 29.7 mM) in the data set with Cutibacterium acnes (setting [3]) and 4100 µg/mL (≈ 29.7 mM) in the data set with Pseudomonas aeruginosa (clinical strain, tested 4 096 to 0.125 μg/mL, b = out of range, read-out: MBC, P. aeruginosa). In data set [1], this molecule showed a logP at 24 h of 1.82. Besides, the MFC in the data set on Candida albicans (read-out: MFC, C. albicans) is 2050 µg/mL (≈ 14.8 mM).
As for `CCCCCC[n+]1cccc(C(N)=O)c1.O=C([O-])c1ccccc1O` [compound 3], in data set [1] (setting [2]), the logP at 24 h was -0.18.
With `CCCCCCCCCC[n+]1cccc(C(N)=O)c1.O=C([O-])c1ccccc1O` [compound 5], in the data set on Cutibacterium acnes, the MIC worked out at 1020 µg/mL and the MBC was determined as 1020 µg/mL. The MIC in the data set with Pseudomonas aeruginosa was found to be 1020 µg/mL. In addition, the logP at 24 h in data set [1] (setting [2]) was determined as 0.59.

(Values after paper PMC11372839, “Unraveling the Potential of Vitamin B3-Derived Salts with a Salicylate Anion as Dermal Active Agents for Acne Treatment” (Molecular Pharmaceutics, 2024).)
